Reference: patent US20250041286A1, “CANCER TREATMENT USING KETOTIFEN IN COMBINATION WITH A CHECKPOINT INHIBITOR” (Materia Therapeutics Inc., priority 2021, published 2025)
Entries after “also recorded” stand apart in the source; their conditions may differ.

Legend:
Format in all cases: in vivo, mouse
MCA205 tumors [1] = assay: Tumor growth (volume, mass) under daily ketotifen, fibrosarcoma model; settings: ketotifen 1, 5, 10 and 25 mg/kg i.p. once a day for 8 days
Protocol: Two mouse models of distinct sarcoma subtypes, fibrosarcoma (MCA205 cells) and osteosarcoma (K7M2wt cells), were used in this study.
MCA205, a mouse fibrosarcoma cell line (SCC173, Millipore), was cultured in RPMI-1640 expansion medium containing 2 mM L-glutamine, 1 mM sodium pyruvate, 10% fetal bovine serum, 1× non-essential amino acids (TMS-001-C, Sigma), 1% antibiotics (A5955, Sigma), and 1×β-mercaptoethanol. K7M2wt, a mouse osteosarcoma cell line (CRL2836™, ATCC®), was cultured in DMEM expansion medium supplemented with 10% FBS and 1% antibiotics. All cells were maintained at 37° C./5% CO2.
A fibrosarcoma syngeneic tumor model was generated by subcutaneous implantation of 2.5×10^5 MCA205 cells in 50 μL of serum-free medium into the flank of 6-week old C57BL/6 female mice. A osteosarcoma syngeneic tumor model was generated by implanting K7M2wt tumor chunks into the fat pad of 6-week old BALB/c female mice. […]
Each treatment group of 4-7 mice received subtherapeutic doses of ketotifen (1, 5, 10 and 25 mg/kg) for a period of 8 days. […] Planar dimensions (x, y) of tumor were monitored every 2-3 days using a digital caliper and tumor volume was estimated from the volume of an ellipsoid and assuming that the third dimension, z, is equal to sqrt(x y).

K7M2wt tumors [2] = assay: Hypoxia study, pimonidazole adduct immunofluorescence; settings: 10 mg/kg ketotifen
Protocol: Mice bearing orthotopic MCA205 or K7M2wt sarcoma tumors were injected (intraperitoneal) with 60 mg/kg of pimonidazole HCl at 2 hours prior to tumor removal. Tumors were removed, washed twice in 1×PBS for 10 minutes and incubated with 4% PFA overnight at 4° C. The fixative was aspirated, and samples were washed twice in 1×PBS for 10 min. Tissue samples were dehydrated in successive ethanol steps and xylene followed by paraffin embedding. Serial sections ([…]) of paraffin-embedded tissues were produced using the microtome (Accu-Cut SRM 200 Rotary Microtome, SAKURA), flattened out into water, and allowed to dry overnight at 37° C. Sections were then deparaffinized and rehydrated as routinely processed for histology. Slides were microwaved in TriSodium Citrate, blocked in serum solution, and incubated with mouse anti-pimonidazole RED 549 conjugate antibody (HP7-100Kit, 1:100) overnight at 4° C. The next day slides were washed, nuclei were stained with DAPI, and tissue sections were mounted. Immunofluorescence images of the slides were taken (FIG. 1A), and hypoxic area fraction across different treatment groups was normalized to DAPI staining.
Immunofluorescence staining for Ki67 and CD8, performed as described above, confirmed the activation status of recruited CD8^+ T cells in osteosarcoma tumors (K7M2wt tumors) (FIGS. 9C-9D). […]

MCA205 tumors [3] = assay: qPCR mRNA expression levels in tumors; settings: 10 mg/kg ketotifen
Protocol: Total RNA was isolated from breast tumors according to the standard Trizol-based protocol (Invitrogen), and cDNA synthesis was performed using reverse transcriptase III (RT-III) enzyme and random hexamers (Invitrogen). Real-time polymerase chain reaction was performed using Sybr Fast Universal Master Mix (KAPA). Reactions were performed using a CFX-96 real-time PCR detection system (BioRad) at the following conditions: 95° C. for 2 minutes, 95° C. for 2 seconds, 60° C. for 20 seconds, 60° C. for 1 second, steps 2-4 for 39 cycles. Real-time PCR analysis and calculation of changes in gene expression between compared groups was performed using the ΔΔ^Ct method. Relative gene expression was normalized based on the expression of β-actin. For qPCR analysis, 3-5 biological samples were used per treatment and 3 technical replicates for each sample.
mRNA expression levels were evaluated in both mouse sarcoma models by qPCR, as described above.
RT-qPCR, as described above, […].

K7M2wt tumors [4] = assay: Hyaluronan evaluation, HABP1 immunofluorescence; settings: daily ketotifen 10 mg/kg
Protocol: (§1) Besides collagen, other structural components of tumor stroma can exert pressure and deform vessels. Such an example is the hyaluronan (e.g., hyaluronic acid), which binds to and retains excessive fluid generating gel-like regions within the tissue. Therefore, hyaluronic acid staining was performed in both sarcoma mouse models.
(§2) Tumors were removed from mice, washed twice in 1×PBS for 10 min, and incubated with 4% PFA overnight at 4° C. The fixative was aspirated, and samples were washed twice in 1×PBS for 10 min. Tissue samples were dehydrated in successive ethanol steps and xylene followed by paraffin embedding. Serial sections ([…]) of paraffin-embedded tissues were produced using the microtome (Accu-Cut SRM 200 Rotary Microtome, SAKURA), flattened out into water, and allowed to dry overnight at 37° C. Sections were then deparaffinized and rehydrated as routinely processed for histology. Tissue sections were subjected to antigen retrieval (microwave heat treatment with TriSodium Citrate, pH 6, for 20 min), washed with 1×TBS/0.025% Triton X-100 (TBS-T), and incubated in blocking solution (2% BSA, 0.2% Triton 100×) for 2 hours at room temperature. […] Hyaluronan was detected following incubation with streptavidin-FITC conjugate (Invitrogen, 1:1000) and nuclei were stained with DAPI stain at room temperature for 1 hour in the dark. […]

MCA205 tumors [5] = assay: Hyaluronan evaluation, HABP1 immunofluorescence; settings: daily ketotifen 10 mg/kg
Protocol: as §1, §2

MCA205 tumors [6] = assay: Tumor-opening experiment (residual solid stress); settings: 5 mg/kg and 10 mg/kg ketotifen
Protocol: Tumor-opening experiments were performed as an indicator of the amount of residual stress contained within the tissue, using the values of opening after cutting.

Q: How did the “antitumor effect (tumor volume and mass)” value (MCA205 tumors [1]) turn out when `CN1CCC(=C2c3ccccc3CC(=O)c3sccc32)CC1` [ketotifen] was run?
A: No subtherepautic dose of ketotifen exhibited an antitumor effect

Q: What about the “pimonidazole positive fraction (hypoxia)” value (K7M2wt tumors [2]) of the same compound?
A: significantly reduced; also recorded: alleviated hypoxia

Q: What about the “mRNA expression of ICAM” value (MCA205 tumors [3]) of the same compound?
A: increased

Q: What about the “mRNA expression of P-selectin (P-sel)” value (MCA205 tumors [3]) of the same compound?
A: increased

Q: What about the “mRNA levels of IFN-γ” value (MCA205 tumors [3]) of the same compound?
A: upregulated; also recorded: upregulation

Q: What about the “mRNA levels of VEGF” value (MCA205 tumors [3]) of the same compound?
A: without affecting; also recorded: a reduction in VEGF transcripts was not observed

Q: And the “mRNA levels of collagen I encoding gene (Col1A1)” value (MCA205 tumors [3])?
A: reduced the mRNA levels of collagen I encoding gene (Col1A1) and connective tissue growth factor (CTGR), although not to a statistically significant extent

Q: What about the “mRNA levels of connective tissue growth factor (CTGR)” value (MCA205 tumors [3]) of the same compound?
A: reduced the mRNA levels of collagen I encoding gene (Col1A1) and connective tissue growth factor (CTGR), although not to a statistically significant extent

Q: What about the “mRNA levels of hyaluronan synthase 2 (Has2)” value (MCA205 tumors [3]) of the same compound?
A: no effect

Q: What about the “mRNA levels of hyaluronan synthase 3 (Has3)” value (MCA205 tumors [3]) of the same compound?
A: no effect

Q: What about the “expression of hyaluronan protein (HABP1 staining)” value (K7M2wt tumors [4]) of the same compound?
A: reduced

Q: And the “expression of hyaluronan protein (HABP1 staining)” value (MCA205 tumors [5])?
A: reduced

Q: And the “tumor opening after cutting (solid stress)” value (MCA205 tumors [6])?
A: smaller opening
